From patent US11040053B2, “Compositions and methods for activating “stimulator of interferon gene”13 dependent signalling” (CHINOOK THERAPEUTICS, INC., priority 2015, dated 2021)

Columns and labels:
HAQ allele hSTING = target: T1, HAQ allele hSTING (Homo sapiens, UniProt Q86WV6, G230A/H232R/R293Q); test: Differential scanning fluorometry (DSF) binding to purified hSTING HAQ allele; details: for binding relative to OH reference compound, in words / binding relative to naturally produced 2′3′-(G)(A), in words: Table 4 comment, HAQ allele hSTING
T1 construct: DNA encoding amino acids 140-379 (amino acid numbering corresponding to Swiss Prot Q86WV6); 6xHIS (N, cleaved yes); SUMO (N, cleaved yes); made in house; host or cells: Rosetta2 (DE3) E. coli

hSTING HAQ allele = target: T2, hSTING HAQ allele (Homo sapiens, UniProt Q86WV6, G230A/H232R/R293Q/R71H); test: IRF-3 inducible secreted luciferase reporter in THP1-Dual cells without digitonin; format: cell-based; details: for activity relative to OH reference compound, in words: Table 5 comment, THP1 cells without digitonin
T2 construct: a human monocyte cell line containing the hSTING HAQ allele; host or cells: THP1-Dual cells
How it was run: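 THP1-Dual cells were exposed for 30 min, washed, and cultured overnight at 37 °C in fresh RPMI/10% FBS. Secreted luciferase in the supernatant was read with QUANTI-Luc as the type I interferon signal. EC50 was taken from a 10-point serial-dilution dose-response curve.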

HIVgag p55 protein = test: Immunization with HIVgag p55 protein plus CDN, splenocyte IFNγ ELISPOT; format: in vivo, BALB/c mice; details: 1 μg or 5 μg CDN in AddaVax with 5 μg HIVgag p55 s.c., day 7 IFNγ ELISPOT, vs no CDN; for HIVgag p55 antigen specific CD4+ T-cell response, in words: FIG. 16A
Method: To determine whether the fluorinated derivatives could elicit HIVgag-specific CD4^+ and CD8^+ T cell responses, BALB/c mice (n=4) were immunized subcutaneously with 0 μg (no CDN), 1 μg or 5 μg of CDN formulated in 2% squalene-and-water (AddaVax, Invivogen) with 5 μg HIVgag p55 protein. Seven days following the vaccination, spleens were harvested from the mice and splenocytes prepared. 2×10^5 splenocytes were stimulated overnight in an IFNγELISPOT assay with media alone (unstimulated) or with 1 μM HIVgag p55 CD4^+ and CD8^+ specific peptides. IFNγ ELISPOTs were developed and quantified using a CTL plate reader and ImmunoSpot software. 3′3′-RR-(2′F-A)(2′F-A) and 3′3′-RR-(2′F-G)(2′F-A) were evaluated for their ability to induce HIVgag-specific immune responses.

[1] = target: T3, human-STING(E149-S379)H232R protein (Homo sapiens, UniProt Q86WV6, H232R); test: Surface Plasmon Resonance binding to hSTING WT; details: Biacore T200, 15° C., steady-state analysis
T3 construct: His6 (C); made in house; host or cells: E. coli
Method: Binding of the mono- and di-F CDN compounds was assessed using Surface Plasmon Resononce to determine a binding constant. An E. coli expression construct (human-STING[E149-S379]H232R) was prepared harboring the protein sequence:
Aliquots were prepared and stored at −80° C. in 30 mM Tris pH 7.5/100 mM NaCl/10% glycerol.
N-terminal avi-tagged human-STING(E149-S379)H232R protein was immobilized (2500 RUs) on a streptavidin chip at 15° C. in a Biacore T200 (GE Healthcare). Titrations of cyclic dinucleotides (CDNs as indicated in Table 6) in 30 mM Tris pH 7.5/50 mM NaCL/0.005% Tween 20/1 mM DTT/2% DMSO, were profiled (30 μLs/min, 180 seconds for sample contact/120 seconds for dissociation) against hSTING at 15° C. Kinetic analysis of the data was performed using Biacore T200 Evaluation software. Steady-state analysis of the data was performed using Graphpad Prism 6.0 software, using one site-specific binding algorithm (Equation is Y=Bmax*X/(Kd+X)).

hSTING(REF) = hSTING(REF) (Homo sapiens, UniProt Q86WV6); test: IFN-β luciferase reporter in HEK293T cells stably expressing hSTING(REF), digitonin permeabilization; details: FIGS. 6A-B, 0.1 μM to 100 μM and 6.25 μM CDN
Chain of hSTING(REF) (Q86WV6 whole entry): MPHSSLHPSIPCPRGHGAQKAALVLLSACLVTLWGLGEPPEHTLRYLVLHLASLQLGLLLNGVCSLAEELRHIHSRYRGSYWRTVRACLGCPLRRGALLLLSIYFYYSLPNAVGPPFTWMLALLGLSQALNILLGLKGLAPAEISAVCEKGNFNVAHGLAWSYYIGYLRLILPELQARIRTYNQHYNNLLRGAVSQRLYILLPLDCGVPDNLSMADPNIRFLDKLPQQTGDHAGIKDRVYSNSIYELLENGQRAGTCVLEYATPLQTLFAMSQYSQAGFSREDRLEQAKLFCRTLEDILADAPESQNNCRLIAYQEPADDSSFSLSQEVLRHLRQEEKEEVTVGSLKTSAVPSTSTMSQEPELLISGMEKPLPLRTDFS
Method: 24 hours later, cells were stimulated with native and synthetic CDN derivative molecules using digitonin permeabilization to ensure uniform uptake.
After 20 min, the stimulation mixtures were removed and 200 ul of DMEM media supplemented with 10% (vol/vol) fetal bovine serum, 1% L-Glutamine, and 1% Penicillin/Streptomycin was added. Cells were incubated an additional 6 hours (37° C., 5% CO2) and then cell lysates were prepared and reporter gene activity measured on a Spectramax M3 luminometer using the Dual-Glo Luciferase Assay System (Promega, catalog #E2920) as described by the manufacturer. IFNβ firefly luciferase reporter gene activity was normalized to TK renilla luciferase gene activity and plotted as fold induction over activity in unstimulated cells (mean+/−s.e.m.).

T1 sequence (Q86WV6 140-379 G230A/H232R/R293Q limits assumed): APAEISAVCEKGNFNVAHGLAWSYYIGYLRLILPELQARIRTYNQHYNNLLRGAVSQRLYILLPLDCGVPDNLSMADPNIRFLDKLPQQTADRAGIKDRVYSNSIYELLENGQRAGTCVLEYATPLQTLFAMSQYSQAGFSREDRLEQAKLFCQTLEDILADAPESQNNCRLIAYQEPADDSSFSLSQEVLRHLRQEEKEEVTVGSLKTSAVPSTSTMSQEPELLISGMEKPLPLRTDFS
T2 sequence (Q86WV6 whole entry R71H/G230A/H232R/R293Q): as the sequence (Q86WV6 whole entry) above, with R71H, G230A, H232R, R293Q counted along it
T3 sequence (Q86WV6 with tags, fused parts or gaps H232R): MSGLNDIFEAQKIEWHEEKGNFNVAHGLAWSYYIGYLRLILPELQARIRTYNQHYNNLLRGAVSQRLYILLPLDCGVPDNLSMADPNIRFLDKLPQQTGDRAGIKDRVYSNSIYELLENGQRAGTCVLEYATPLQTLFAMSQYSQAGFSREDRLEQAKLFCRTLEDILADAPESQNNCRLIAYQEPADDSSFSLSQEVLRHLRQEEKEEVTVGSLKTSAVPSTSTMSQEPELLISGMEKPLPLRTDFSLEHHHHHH

| SMILES | hSTING Tm Shift HAQ (HAQ allele hSTING; DSF, 1 mg/ml STING AA140-379, ligand 1 mM) [°C] | binding relative to OH reference compound, in words (HAQ allele hSTING) | binding relative to naturally produced 2′3′-(G)(A), in words (HAQ allele hSTING) | activity relative to OH reference compound, in words (hSTING HAQ allele) | EC50 (hSTING HAQ allele; without digitonin in THP1 cells (HAQ allele)) [µM] | HIVgag p55 antigen specific CD4+ T-cell response, in words (HIVgag p55 protein) | Kd [1] [µM] | IFNβ luciferase reporter induction by hSTING(REF), in words (hSTING(REF)) | HIVgag p55 antigen specific CD8+ T-cell response, in words (HIVgag p55 protein; FIG. 16B) |
| --- | --- | --- | --- | --- | --- | --- | --- | --- | --- |
| Nc1ncnc2c1ncn2[C@@H]1O[C@@H]2CO[P@@](=O)(S)O[C@H]3[C@@H](F)[C@H](n4cnc5c(N)ncnc54)O[C@@H]3CO[P@@](=O)(S)O[C@H]2[C@H]1F [Compound 6, (2R,3R,3aR,5R,7aR,9R,10R,10aR,12R,14aR)-2,9-bis(6-amino-9H-purin-9-yl)-3,10-difluoro-5,12-dimercaptooctahydro-2H,7H-difuro[3,2-d:3′,2′-j][1,3,7,9]tetraoxa[2,8]diphosphacyclododecine 5,12-dioxide] | 32.4 | improved binding | improved binding | improved activity | 19 | eliciting significant CD4+ T cell responses against HIVgag p55 | 0.001 | strongly induced IFNβ reporter activity, to a level similar to the endogenous cellular ligand 2′3′-(G)(A) | – |
| Nc1nc2c(ncn2[C@@H]2O[C@@H]3CO[P@@](=O)(S)O[C@H]4[C@@H](F)[C@H](n5cnc6c(N)ncnc65)O[C@@H]4CO[P@@](=O)(S)O[C@H]3[C@H]2F)c(=O)[nH]1 (stereo in doubt) [Compound 14, 2-Amino-9-((2R,3R,3aR,5R,7aR,9R,10R,10aR,12R,14aR)-9-(6-amino-9H-purin-9-yl)-3,10-difluoro-5,12-dimercapto-5,12-dioxidooctahydro-2H,7H-difuro [3,2-d:3′,2′-j][1,3,7,9]tetraoxa[2,8]diphosphacyclododecin-2-yl)-1,9-dihydro-6H-purin-6-one] | – | improved binding | improved binding | improved activity | – | eliciting significant CD4+ T cell responses against HIVgag p55 | – | strongly induced IFNβ reporter activity, to a level similar to the endogenous cellular ligand 2′3′-(G)(A) | elicited significant CD8^+ T cell responses against HIVgag p55 |
